{
  "source": "patent US9351971B2",
  "about": "“Substituted 2,2′-biphenazines for treating diseases” (Eutropics Pharmaceuticals, Inc., priority 2010, dated 2016)",
  "key": {"[1]": {"test_system": "NCI H929 tumors", "assay": "NCI H929 human myeloma xenograft model in mice", "format": "in vivo, mouse", "conditions": "vehicle 2300 mm^3", "experimental": "Cell Culture: Tumor cell line NCI H929 was cultured according to ATCC recommendations in […] containing 10% fetal bovine serum and pen-strep. On the day of implantation, cells were washed 1× with phosphate buffered saline (PBS) and harvested via centrifugation. Cells were pelleted (5 min at 1000 rpm, RT) then resuspended in serum-free matrigel and kept on ice until implantation.\nTumor Cell Implantation: The cell line was implanted via subcutaneous injection on the right rear flank at a volume of 200 μl containing 3×10^7 cells per mouse; the injection site was cleaned using alcohol before and after injection to prevent any infection.\nTumor Assessment: Beginning 1 week post cell implantation all animals were weighed and tagged and tumors were measured and body weights taken 3 times weekly (length×width×height) on Monday, Wednesday, and Friday for the duration of study. Once an average tumor volume of 100-200 mm^3 was reached, animals were randomized and placed into 4 treatment groups of a minimum of 10 mice per group based on tumor size. Randomization was determined by tumor volume (length×width×height)[…] for all of the mice and average volume was calculated using a average function in Excel (Microsoft Professional).\nTreatment: The study involved 4 groups of 10 animals per group. Animals in all dose groups were weighed on days of tumor measurement. All doses were administered i.p. at 10 mL/kg. The Bortezormib (1 mg/kg) group was once every 3 days for 15 days. The mice receiving vehicle and compound II-19 were dosed every second day. Compound II-19 was formulated in 1% DMSO, 10 mM Tris pH 8, 30% hydroxypropyl-beta-cyclodextrin; this vehicle was used as the “vehicle” control. Bortezomib was formulated in 30% propylene glycol, 5% Tween 80, 3.3% dextrose in water, pH 4, 1% DMSO."}, "[2]": {"test_system": "AML-3 acute myelogenous leukemia cell line", "assay": "Cell viability MTS assay, AML-3", "format": "cell-based", "conditions": "Homo sapiens, AML3, 48 hours, read-out: EC50, cell killing in AML-3", "experimental": "The lymphoid derived cell lines DHL-6 and DHL-10 were obtained from Anthony Letai of the Dana Father Cancer Research Institute, Boston, Mass. The […] derived cell line NCP-H929 was obtained irons, the NIH/NCI cell repository. AML-3 cells were obtained from Dr. Michael Andreef (MD Anderson Cancer Center, Houston, Tex.). Cells were grown in RPMI 1640 medium (GIBCO-BRL) supplemented with Pen-strep-glutamine (Gibco 10378) and 5% fetal bovine serum.\nCells were expanded in tissue culture in appropriate media and then subcultured into 96-well plates at a seeding density of 20,000-40,000 cells per well, and cells were treated with one or more compounds that were titrated info appropriate medium with FCS. Cell lines were treated with compound A at concentrations ranging from 25 μM to 25 nM. The BH3-mimetic obatoclax (Nguyen M et al. (2007), Proc. Natl. Acad. Sci. USA 104:19512-19517) was also tested against the SUDHL-6, SUDHL-10, and NCI-H929 cell lines. Cells were treated for 48 hours and scored for viability using the MTS assay (Promega). Growth inhibition was indicated as a percentage of control cell growth. Growth was determined by measuring the A570 (control cells)—A570 (treated cells)/A570 (control cells). EC50 values were calculated using Graphpad Prizm software."}, "[3]": {"biological_target": "T1, Mcl-1 (Homo sapiens, UniProt Q07820)", "T1 construct": "made in house; host or cells: E. coli", "T1 sequence (Q07820 whole entry, the tested form may be a part)": "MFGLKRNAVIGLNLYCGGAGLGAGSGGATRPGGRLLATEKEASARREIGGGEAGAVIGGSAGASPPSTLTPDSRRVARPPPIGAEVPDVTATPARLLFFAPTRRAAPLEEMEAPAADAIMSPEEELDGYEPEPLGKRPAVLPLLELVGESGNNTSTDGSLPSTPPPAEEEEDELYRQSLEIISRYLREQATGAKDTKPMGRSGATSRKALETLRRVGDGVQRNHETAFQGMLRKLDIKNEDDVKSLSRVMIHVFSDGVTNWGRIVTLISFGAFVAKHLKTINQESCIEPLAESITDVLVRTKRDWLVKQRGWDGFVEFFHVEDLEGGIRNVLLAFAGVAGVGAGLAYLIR", "assay": "Fluorescence polarization assay, Bim BH3 peptide binding to GST-Mcl-1", "excerpt": "A nineteen amino acid peptide, corresponding to the BH3 domain of Bim, with the sequence FITC-GGGIAQELRRIGDEFNAY (SEQ ID NO: 1) was labeled with the tluorophore FITC according to the manufacturer's instructions (Molecular Probes, Eugene, Oreg.). This sequence was identified as being able to bind to purified Bcl-xL protein (Sattler et al. (1997) Science 275(5302): 983-86) and to have biological activity in cells (Holinger et al. J. Biol. Chem. 274; 13298-1330).\nIn addition, recombinant GST -Mcl-1 and GST-Bcl-xL fusion proteins were generated in E.coli and purified using glutathione-sepharose beads using conventional techniques known to those skilled in the fields of biochemistry and molecular biology, (methods for preparation are described in Strategies for Protein Purification and Characterization, Marshak, D, Kadonga, J, Burgess R, Knuth, M, Brennan, W, Sue-Hwa, L, CSH press, Cold Spring Harbor, N.Y.). Binding of the recombinant proteins to the fluorescent Bim BH3 domain was confirmed by titration of increasing concentrations of the recombinant proteins against a constant amount of labeled Bim peptide (16.65 nM). Quantitation of binding was accomplished by FP assay with mP measurements made on the Analyst-GT reader (Molecular Devices, Sunnyvale, Calif.).\nFurther, the ability of compound A to disrupt the interaction between the fluorescent Bim BH3 peptide and the two fusion proteins was assessed using a fluorescence polarization assay. The Bim peptide (in solution at 4 nano-Molar) and either GST-Mcl-1 (in solution at 12.5 nM) or GST-Bcl-xL (in solution at 11.8 nM) were first combined together in phosphate buttered saline buffer, and then the compound solution in DMSO was added to final concentrations ranging from 10 μM to 0.1 nM). Normally the unbound Bim polypeptide results in polarization of 5 mP units. Upon binding of the GST-Bcl-xL and GST-Mcl-1 fusion protein, polarization increased to 100 mP units.\nExperiments are performed using the fluorescence polarization assay as described in Example 2. Either Bcl-xL or Mcl-1 fusion proteins were titrated and maximum mp shift indicate binding concentrations for drug titration studies, as described in Example 2. Compound II-19, was titrated from 10 μM to 0.1 nM in 2 fold serial dilution into the peptide/protein solution. The IC50 for blocking each BH3 peptide from Mcl-1 are assessed using FP, as described in Example 2.\nExperiments are performed using the fluorescence polarization assay as described in Example 2. Either GST-Bcl-xL or GST-Mcl-1 fusion proteins were titrated and maximum mp shift indicate binding concentrations for drug titration studies, as described in Example 2. Compound II-20, was titrated from 10 μM to 0.1 nM in 2-fold serial dilution into the peptide/protein solution. The IC50 for blocking each BH3 peptide from Mcl-1 are assessed using FP, as described in Example 2."}},
  "note": "pEC50, pIC50: −log10 of the molar value.",
  "data": [
    {"smiles": "COC(=O)c1ccc(O)c2nc3c(C=O)c(O)c(-c4c(O)c(C=O)c5nc6c(O)ccc(C(=O)OC)c6nc5c4O)c(O)c3nc12", "note": "[II-19, dimethyl 4,4′-diformyl-1,1′,3,3′,6,6′-hexahydroxy-[2,2′-biphenazine]-9,9′-dicarboxylate]", "values": [
      {"measurement": "average tumor size at the end of the study", "setting": "[1]; 1 mg/kg i.p. every second day", "value": 1740, "unit": "mm^3"},
      {"measurement": "average tumor size at the end of the study", "setting": "[1]; 3 mg/kg i.p. every second day", "value": 1600, "unit": "mm^3"},
      {"measurement": "pEC50", "setting": "[2]", "value": 5.00},
      {"measurement": "pIC50", "setting": "[3]; fluorescence polarization, Bim-BH3-FITC peptide, GST-Mcl-1, read-out: IC50, inhibition of Bim-BH3 peptide binding to Mcl-1", "value": 8.15},
      {"measurement": "preference for inhibition of Mcl-1 vs. Bcl-xL", "setting": "[3]; ratio of FP IC50 values", "value": 2, "unit": "fold"}
    ]}
  ]
}
